In the first experiment the test system is M. restricta. Briefly: Disc-diffusion assay, additional perfumery materials in DMSO, M. restricta, 4 days. It is filed as cell-based, Malassezia restricta. To be noted: Malassezia restricta, 96 h, read-out: Inhibition zone diameter (mm) on M. restricta. On the procedure:
Anti-Malassezia effect of additional perfumery materials in DMSO was determined using disc-diffusion assay as described previously. Test samples solutions were prepared in DMSO to final concentrations of 0.5%, 1% or 2%. Discs (Whatman, 6 mm in diameter) were placed on inoculated agar plates. Aliquots (20 μL) of each sample solution was added to each disc. Agar plates were incubated at 30° C. for 4 days. After incubation, diameters of the clear inhibition zones around the discs were recorded
Anti-Malassezia effect of additional perfumery materials in DMSO was determined using disc-diffusion assay as described above. Test samples solutions were prepared in DMSO to final concentrations of 0.5%, 1% or 2%. Discs (Whatman, 6 mm in diameter) were placed on inoculated agar plates. Aliquots (20 μL) of each sample solution was added to each disc. Agar plates were incubated at 30° C. for 4 days. After incubation, diameters of the clear inhibition zones around the discs were recorded.
Anti-Malassezia effect of additional perfumery materials in solvent in DMSO was determined using disc-diffusion assay, as described previously. Test samples solutions are prepared in DMSO to final concentrations of 0.5%. Discs (Whatman, 6 mm in diameter) were placed on inoculated agar plates. Aliquots (20 μL) of each sample solution was added to each disc. Agar plates were incubated at 30° C. for 4 days. After incubation, diameters of the clear inhibition zones around the discs were measured.
As for `c1ccc(Oc2ccccc2)cc1` [1,1′-oxydibenzene], the zone of inhibition at 0.5 % amounted to 7.4 mm.

The same experiment, now with this note: Malassezia restricta, 96 h; Table 18; 1% in DMSO, M. restricta, 4 days; read-out: Inhibition zone diameter (mm).
Consider `CC(C)(O)Cc1ccc(CCC=O)cc1` [3-[4-(2-hydroxy-2-methylpropyl)phenyl]propanal], for which the zone of inhibition at 1 % is 8.9 mm.

The same experiment, now with this note: Malassezia restricta, 96 h; Table 18; 2% in DMSO, M. restricta, 4 days; read-out: Inhibition zone diameter (mm).
In the case of `CC(C)(O)Cc1ccc(CCC=O)cc1` [3-[4-(2-hydroxy-2-methylpropyl)phenyl]propanal], the zone of inhibition at 2 % amounted to 16 mm.

The same experiment, now with this note: Malassezia restricta, 96 h; Table 19; in DMSO (1% or 2%, not specified per value), M. restricta, 4 days; read-out: Inhibition zone diameter (mm).
On to `CCCCC/C=C\CCC=O` [(Z)-4-decenal], for which the zone of inhibition came to 7.2 mm.
The same measure, in the same setting: in the case of `CCCCCCC=C/C=C/C=O` [(2E)-2,4-undecadienal] it was 26.6 mm; in that of `CCCCCCCC=C/C=C/C=O` [(2E)-2,4-dodecadienal], 21.5 mm.
`CC/C=C\CCCCO` [(Z)-5-octen-1-ol]: the zone of inhibition is 7.3 mm.
Still for that read-out and setting: next, `CCCCC/C=C/C=C/C=O` [(E,E)-2,4-decadienal]: above 40 mm; `CCCCCCC/C=C\C=O` [(Z)-2-decenal]: above 40 mm; `CCCCCC/C=C/CO` [(E)-2-nonen-1-ol]: 7.5 mm.
Same read-out and setting: next, `CCCCCCCC/C=C/C=O` [(E)-2-undecenal]: above 40 mm.
For `CC/C=C/C=C/C=O` [(2E,4E)-2,4-heptadienal], the zone of inhibition was above 40 mm.

Staying with this experiment, now noted: Malassezia restricta, 96 h; Table 20; 0.5% in DMSO, 4 days; read-out: Inhibition zone diameter (mm) on M. restricta.
`CC(C=O)c1ccccc1` (centres unmarked) [2-phenylpropanal]: the zone of inhibition at 0.5 % was found to be 7 mm.
`CC(=O)OCCC1=CCC2CC1C2(C)C` (centres unmarked) [2-(6,6-dimethyl-bicyclo[3.1.1]hept-2-en-2-yl)ethyl acetate]: the zone of inhibition at 0.5 % was determined as 7.5 mm.
For the compound `CCC(=CCC1CC=C(C)C1(C)C)CO` (racemic) [(+/−)-2-ethyl-4-(2,2,3-trimethyl-3-cyclopenten-1-yl)-2-buten-1-ol], the zone of inhibition at 0.5 % was 7 mm.
In the case of `CC(C)=CCCC(C)CC=O` (racemic) [(+/−)-3,7-dimethyl-6-octenal], the zone of inhibition at 0.5 % came out at 7.3 mm.
The same measure, in the same setting: in the case of `CCCCCCCCCC/C=C/C=O` [(E)-2-tridecenal] it was 15.2 mm; in that of `CCCCCC/C(C=O)=C\c1ccccc1` [(2E)-2-benzylideneoctanal], 7.2 mm; in that of `CC1(C)C2CC=C(CCC=O)C1C2` (centres unmarked) [3-(6,6-dimethyl-bicyclo[3.1.1]hept-2-en-2-yl)propanal], 7.3 mm.
On the same count and under the same terms, next, `CC(C)CCCC(C)(C)O` [2,6-dimethyl-2-heptanol]: 7.7 mm; `CC/C=C\CCOC(=O)C(C)C` [(Z)-3-hexenyl isobutyrate]: 7.7 mm; `Cc1ccc(CC=O)cc1` [(4-methylphenyl)acetaldehyde]: 10.6 mm.
As for `CCCCCCCCC(C)C=O` (racemic) [(+/−)-2-methyldecanal], the zone of inhibition at 0.5 % was 7.1 mm.
Still for that read-out and setting: next, `CCCCCCCCCC(C)C=O` (racemic) [(+/−)-2-methylundecanal]: 7.1 mm; `CC1(C)CCC[C@]2(C)[C@H]3CCO[C@]3(C)CC[C@@H]12` [(−)-(3aR,5aS,9aS,9bR)-3a,6,6,9a-tetramethyldodecahydronaphtho[2,1-b]furan]: 7.7 mm; `CC/C=C\CCCCC=O` [(Z)-6-nonenal]: 7.2 mm.
For `COC(C)(C)C1CC=C(C)CC1` (centres unmarked) [4-(2-methoxy-2-propanyl)-1-methylcyclohexene], the zone of inhibition at 0.5 % was 7 mm.
The same measure, in the same setting: next, `CC1=C(C=O)C(C)(C)CC=C1` [2,6,6-trimethyl-1,3-cyclohexadiene-1-carbaldehyde]: 7.2 mm.
Still for that read-out and setting: in the case of `CCCCCC/C=C/C=O` [(E)-2-nonenal] it was 38 mm; in that of `C=C1CCCC(C)(C)C1C(=O)OC` (racemic) [(+/−)-methyl 2,2-dimethyl-6-methylidenecyclohexanecarboxylate], 7.5 mm.
Same read-out and setting: in the case of `C=CC(C)CCCC(C)(C)O` (racemic) [(+/−)-2,6-dimethyl-7-octen-2-ol] it was 7.5 mm.
Take `CCCCC/C=C/CCC=O` [(4E)-4-decenal]: the zone of inhibition at 0.5 % amounted to 7.2 mm.
Consider `COC(OC)C(C)(C)CC=C(C)C` [6,6-dimethoxy-2,5,5-trimethyl-2-hexene], for which the zone of inhibition at 0.5 % was 7.2 mm.
On the same count and under the same terms, in the case of `CC/C(=C\C[C@H]1CC=C(C)C1(C)C)CO` [(−)-(2E)-2-ethyl-4-[(1R)-2,2,3-trimethyl-3-cyclopenten-1-yl]-2-buten-1-ol] it was 7.6 mm.
Still for that read-out and setting: next, `CC(CC=O)CCc1ccccc1` (racemic) [(+/−)-3-methyl-5-phenylpentanal]: 7.6 mm.
Consider `CCCCCCCCC=O` [nonanal], for which the zone of inhibition at 0.5 % was 7.3 mm.
`Cc1ccc2c(c1)OCC(=O)CO2` [7-methyl-2H-1,5-benzodioxepin-3(4H)-one]: the zone of inhibition at 0.5 % is 7 mm.
Still for that read-out and setting: next, `O=C1CCCCCCCCCCCC(=O)OCCO1` [1,4-dioxacycloheptadecane-5, 17-dione]: 7.3 mm; `CCCCCCCC=O` [octanal]: 7.5 mm; `Cc1cc2c(cc1C=O)C(C)(C)[C@H](C)[C@@H](C)C2(C)C` (racemic) [(6RS,7RS)-3,5,5,6,7,8,8-heptamethyl-5,6,7,8-tetrahydro-2-naphthalenecarbaldehyde]: 7.8 mm.
The same measure, in the same setting: next, `CC1=CCC(C/C=C(\C)CO)C1(C)C` (racemic) [(+/−)-(2E)-2-methyl-4-(2,2,3-trimethyl-3-cyclopenten-1-yl)-2-buten-1-ol]: 7.6 mm.
For `CCCCC/C=C/C=O` [(E)-2-octenal], the zone of inhibition at 0.5 % was 24.8 mm.
`CC(C=O)Cc1ccc2c(c1)OCO2` (racemic) [(+/−)-3-(1,3-benzodioxol-5-yl)-2-methylpropanal]: the zone of inhibition at 0.5 % is 19 mm.
On the same count and under the same terms, next, `COc1cc(C=O)ccc1OC(=O)C(C)C` [4-formyl-2-methoxyphenyl 2-methylpropanoate]: 10.2 mm; `CC1(C)CC=C(CCC=O)CC1` [3-(4,4-dimethyl-1-cyclohexen-1-yl)propanal]: 8.9 mm.
Same read-out and setting: in the case of `CC(=CC=O)CCC(C)=C(C)C` [3,6,7-trimethyl-2,6-octadienal] it was 8.7 mm; in that of `CC(C)=CCC[C@@H](C)CC=O` [(+)-(R)-3,7-dimethyl-6-octenal], 7.1 mm.

Still in this experiment, the particulars now being: Malassezia restricta, 96 h; read-out: Inhibition zone diameter (mm).
With `C/C(=C\c1ccc(C)cc1)CC(C)C=O` (racemic) [(+/−)-(4E)-2,4-dimethyl-5-(4-methylphenyl)-4-pentenal], the zone of inhibition at 0.5 % is 7.8 mm.

Still in this experiment, the particulars now being: Table 19; in DMSO (0.5%, 1% or 2%, not specified per value), M. restricta, 4 days.
Consider “(+/−)-(4Z)-4,8-dimethyl-4,9-decadienal + (+/−)-(4E)-4,8-dimethyl-4,9-decadienal”, for which the “Inhibition zone diameter (mm)” value was found to be 7.3 mm.

The same experiment, now with this note: Table 20; 0.5% in DMSO, 4 days.
For the compound “(2R)-2-methyl-4-[(1R)-2,2,3-trimethyl-3-cyclopenten-1-yl]-4-pentenal + (2S)-2-methyl-4-[(1R)-2,2,3-trimethyl-3-cyclopenten-1-yl]-4-pentenal”, the “Inhibition zone diameter (mm) on M. restricta” value was determined as 7.0 mm.
For “(+)-(3S)-3-[(1R)-4-methyl-3-cyclohexen-1-yl]butanal + (+)-(3R)-3-[(1R)-4-methyl-3-cyclohexen-1-yl]butanal”, the “Inhibition zone diameter (mm) on M. restricta” value came out at 7.3 mm.
As to “(1RS,2RS)-2,4-dimethyl-3-cyclohexene-1-carbaldehyde + (1RS,2SR)-2,4-dimethyl-3-cyclohexene-1-carbaldehyde”, the “Inhibition zone diameter (mm) on M. restricta” value was determined as 8.0 mm.
For “cis-4-(2-methyl-2-propanyl)cyclohexyl acetate + trans-4-(2-methyl-2-propanyl)cyclohexyl acetate”, the “Inhibition zone diameter (mm) on M. restricta” value worked out at 7.2 mm.

(Values after patent publication US20260207450A1, “ANTI-DANDRUFF COMPOSITIONS” (Firmenich SA, priority 2022, published 2026).)
